Data published in patent US10227344B2, “CK2 inhibitors, compositions and methods thereof” (Polaris Pharmaceuticals, Inc., priority 2016, dated 2019).

Legend:
Format in all cases: cell-based
[1] = test system: Caov-3; test: Cancer cell panel, cell viability (resazurin): Ovarian, Caov-3; conditions: Caov-3 (Ovarian), 72 hours; labelled drug combined with Example 3
[2] = test system: SK-MEL-24; test: Cancer cell panel, cell viability (resazurin): Melanoma, SK-MEL-24; conditions: SK-MEL-24 (Melanoma), 72 hours; labelled drug combined with Example 3
[3] = test system: A2780; test: Cancer cell panel, cell viability (resazurin): Ovarian, A2780; conditions: 72 hours, labelled drug combined with Example 3
[4] = test system: RPMI8226; test: Cancer cell panel, cell viability (resazurin): multiple myeloma, RPMI8226; conditions: 72 hours, labelled drug combined with Example 3
[5] = test system: EOL-1; test: Cancer cell panel, cell viability (resazurin): Leukemia, EOL-1; conditions: EOL-1 (Leukemia), 72 hours; labelled drug combined with Example 3
[6] = test system: U266; test: Cancer cell panel, cell viability (resazurin): multiple myeloma, U266; conditions: 72 hours, labelled drug combined with Example 3
[7] = test system: WM-115; test: Cancer cell panel, cell viability (resazurin): Melanoma, WM-115; conditions: WM-115 (Melanoma), 72 hours; labelled drug combined with Example 3
[8] = test system: Caki-1; test: Cancer cell panel, cell viability (resazurin): Renal, Caki-1; conditions: Caki-1 (Renal), 72 hours; labelled drug combined with Example 3
[9] = test system: HCT116; test: Cancer cell panel, cell viability (resazurin): Colon, HCT116; conditions: 72 hours, labelled drug combined with Example 3
[10] = test system: H460; test: Cancer cell panel, cell viability (resazurin): NSCLC, H460; conditions: 72 hours, labelled drug combined with Example 3
[11] = test system: LnCap; test: Cancer cell panel, cell viability (resazurin): Prostate, LnCap; conditions: 72 hours, labelled drug combined with Example 3
[12] = test system: U87MG; test: Cancer cell panel, cell viability (resazurin): Glioblastoma, U87MG; conditions: 72 hours, labelled drug combined with Example 3
[13] = test system: Raji; test: Cancer cell panel, cell viability (resazurin): Burkitt's Lymphoma, Raji; conditions: 72 hours, labelled drug combined with Example 3
[14] = test system: MOLT4; test: Cancer cell panel, cell viability (resazurin): Leukemia, MOLT4; conditions: 72 hours, labelled drug combined with Example 3
[15] = test system: ACHN; test: Cancer cell panel, cell viability (resazurin): Renal, ACHN; conditions: 72 hours, labelled drug combined with Example 3
[16] = test system: T47D; test: Cancer cell panel, cell viability (resazurin): Breast, T47D; conditions: 72 hours, labelled drug combined with Example 3
[17] = test system: MDA-MB-157; test: Cancer cell panel, cell viability (resazurin): Breast, MDA-MB-157; conditions: MDA-MB-157 (Breast), 72 hours; labelled drug combined with Example 3
[18] = test system: MDA-MB-453; test: Cancer cell panel, cell viability (resazurin): Breast, MDA-MB-453; conditions: MDA-MB-453 (Breast), 72 hours; labelled drug combined with Example 3
[19] = test system: LoVo; test: Cancer cell panel, cell viability (resazurin): Colon, LoVo; conditions: 72 hours, labelled drug combined with Example 3
[20] = test system: BT-474; test: Cancer cell panel, cell viability (resazurin): Breast, BT-474; conditions: BT-474 (Breast), 72 hours; labelled drug combined with Example 3
[21] = test system: 786-O; test: Cancer cell panel, cell viability (resazurin): Renal, 786-O; conditions: 786-O (Renal), 72 hours; labelled drug combined with Example 3
[22] = test system: MeWO; test: Cancer cell panel, cell viability (resazurin): Melanoma, MeWO; conditions: 72 hours, labelled drug combined with Example 3
[23] = test system: H1975; test: Cancer cell panel, cell viability (resazurin): NSCLC, H1975; conditions: 72 hours, labelled drug combined with Example 3
[24] = test system: DLD-1; test: Cancer cell panel, cell viability (resazurin): Colon, DLD-1; conditions: DLD-1 (Colon), 72 hours; labelled drug combined with Example 3
[25] = test system: H2122; test: Cancer cell panel, cell viability (resazurin): NSCLC, H2122; conditions: 72 hours, labelled drug combined with Example 3
[26] = test system: HL60; test: Cancer cell panel, cell viability (resazurin): Leukemia, HL60; conditions: 72 hours, labelled drug combined with Example 3
[27] = test system: Ramos; test: Cancer cell panel, cell viability (resazurin): Burkitt's Lymphoma, Ramos; conditions: 72 hours, labelled drug combined with Example 3
[28] = test system: MDA-MB-231; test: Cancer cell panel, cell viability (resazurin): Breast, MDA-MB-231; conditions: MDA-MB-231 (Breast), 72 hours; labelled drug combined with Example 3
[29] = test system: H23; test: Cancer cell panel, cell viability (resazurin): NSCLC, H23; conditions: 72 hours, labelled drug combined with Example 3

In the case of `O=c1[nH]cc(F)c(=O)[nH]1` [Example 5FU, 5-FU], the “synergy, additivity or antagonism of the combination of Example 3 with the anti-cancer drug” value (“synergy, additivity or antagonism” below) [1] is reported as “+ (Additive relative to each agent alone (CI = 0.9-1 by Bliss Independence Model and <0.9 by Highest Single Agent Model))”, the “synergy, additivity or antagonism” value [2] is reported as “+ (Additive relative to each agent alone (CI = 0.9-1 by Bliss Independence Model and <0.9 by Highest Single Agent Model))” and the “synergy, additivity or antagonism” value [3] is reported as “+ + (Slight synergy relative to each agent alone (CI = 0.75-0.9 by Bliss Independence Model))”. The “synergy, additivity or antagonism” value [4] was “+ (Additive relative to each agent alone (CI = 0.9-1 by Bliss Independence Model and <0.9 by Highest Single Agent Model))”, the “synergy, additivity or antagonism” value [5] was “+ (Additive relative to each agent alone (CI = 0.9-1 by Bliss Independence Model and <0.9 by Highest Single Agent Model))” and the “synergy, additivity or antagonism” value [6] was “+ (Additive relative to each agent alone (CI = 0.9-1 by Bliss Independence Model and <0.9 by Highest Single Agent Model))”. For the same compound, the “synergy, additivity or antagonism” value [7] was “+ (Additive relative to each agent alone (CI = 0.9-1 by Bliss Independence Model and <0.9 by Highest Single Agent Model))”, the “synergy, additivity or antagonism” value [8] was “+ (Additive relative to each agent alone (CI = 0.9-1 by Bliss Independence Model and <0.9 by Highest Single Agent Model))” and the “synergy, additivity or antagonism” value [9] was “+ + (Slight synergy relative to each agent alone (CI = 0.75-0.9 by Bliss Independence Model))”. For the same compound, the “synergy, additivity or antagonism” value [10] was “+ + + (Synergy relative to each agent alone (CI = 0.4-0.74 by Bliss Independence Model))”, the “synergy, additivity or antagonism” value [11] was “+ (Additive relative to each agent alone (CI = 0.9-1 by Bliss Independence Model and <0.9 by Highest Single Agent Model))” and the “synergy, additivity or antagonism” value [12] was “+ (Additive relative to each agent alone (CI = 0.9-1 by Bliss Independence Model and <0.9 by Highest Single Agent Model))”. For the same compound, the “synergy, additivity or antagonism” value [13] was “+ (Additive relative to each agent alone (CI = 0.9-1 by Bliss Independence Model and <0.9 by Highest Single Agent Model))”, the “synergy, additivity or antagonism” value [14] was “+ + (Slight synergy relative to each agent alone (CI = 0.75-0.9 by Bliss Independence Model))” and the “synergy, additivity or antagonism” value [15] was “+ (Additive relative to each agent alone (CI = 0.9-1 by Bliss Independence Model and <0.9 by Highest Single Agent Model))”. For the same compound, the “synergy, additivity or antagonism” value [16] was “+ (Additive relative to each agent alone (CI = 0.9-1 by Bliss Independence Model and <0.9 by Highest Single Agent Model))”, the “synergy, additivity or antagonism” value [17] was “+ + (Slight synergy relative to each agent alone (CI = 0.75-0.9 by Bliss Independence Model))” and the “synergy, additivity or antagonism” value [18] was “+ (Additive relative to each agent alone (CI = 0.9-1 by Bliss Independence Model and <0.9 by Highest Single Agent Model))”. The “synergy, additivity or antagonism” value [19] was “+ (Additive relative to each agent alone (CI = 0.9-1 by Bliss Independence Model and <0.9 by Highest Single Agent Model))”, the “synergy, additivity or antagonism” value [20] was “+ (Additive relative to each agent alone (CI = 0.9-1 by Bliss Independence Model and <0.9 by Highest Single Agent Model))” and the “synergy, additivity or antagonism” value [21] was “+ + + (Synergy relative to each agent alone (CI = 0.4-0.74 by Bliss Independence Model))”. The “synergy, additivity or antagonism” value [22] was “− (Slightly antagonistic relative to each agent alone (CI = 1.1-1.2 by Highest Single Agent Model))”, the “synergy, additivity or antagonism” value [23] was “− − (Antagonistic relative to each agent alone (CI = 1.2-1.49 by Highest Single Agent Model))” and the “synergy, additivity or antagonism” value [24] was “+ (Additive relative to each agent alone (CI = 0.9-1 by Bliss Independence Model and <0.9 by Highest Single Agent Model))”. The “synergy, additivity or antagonism” value [25] was “+ (Additive relative to each agent alone (CI = 0.9-1 by Bliss Independence Model and <0.9 by Highest Single Agent Model))”, the “synergy, additivity or antagonism” value [26] was “+ (Additive relative to each agent alone (CI = 0.9-1 by Bliss Independence Model and <0.9 by Highest Single Agent Model))” and the “synergy, additivity or antagonism” value [27] was “+ + (Slight synergy relative to each agent alone (CI = 0.75-0.9 by Bliss Independence Model))”. The “synergy, additivity or antagonism” value [28] was “+ (Additive relative to each agent alone (CI = 0.9-1 by Bliss Independence Model and <0.9 by Highest Single Agent Model))” and the “synergy, additivity or antagonism” value [29] was “+ (Additive relative to each agent alone (CI = 0.9-1 by Bliss Independence Model and <0.9 by Highest Single Agent Model))”.
